Patent publication US20100069248A1, “HERBICIDE COMBINATION COMPRISING DIMETHOXYTRIAZINYL SUBSTITUTED DIFLUOROMETHANESULFONYLANILIDES” (BAYER CROPSCIENCE AG, priority 2008, published 2010)

Experiments:
Assay type in all cases: in vivo
Stellaria media (STEME) = assay: Post-emergence action against weeds, greenhouse pots, visual scoring; settings: 10 DAT
Description: (§1) Seeds or rhizome pieces of mono- and dicotyledonous harmful and useful plants were placed in peat pots (diameter 4 cm) filled with sandy loam and then covered with soil. The pots were kept in a greenhouse under optimum conditions. In addition, harmful plants encountered in paddy rice cultivation were cultivated in pots with a water level 2 cm above the soil surface.
(§2) About three weeks after the start of the cultivation, the test plants were treated at the 2- to 3-leaf stage. The herbicides, formulated as powder or liquid concentrates, were, either alone or in the combinations according to the invention, sprayed in various dosages on to the green parts of the plants using an application rate of 600 l of water/ha (converted). For further cultivation of the plants, the pots were then again kept under optimum conditions in a greenhouse.
(§3) The visual scoring of the herbicidal effects was carried out in intervals up to 21 days after the treatment. Scoring was carried out in percent in comparison to the untreated control plants. 0%=no herbicidal activity, 100%=complete herbicidal activity=complete kill.
(§4) The percentages from the treatments with the herbicides alone (=individual application) and with the combinations according to the invention (=mixtures) were employed to calculate interactions using the method of Colby. When the observed efficacies of the mixtures exceed the formal sum of the values of the tests with individual applications, they also exceed the expected value according to Colby, which is calculated using the formula below (cf. S. R. Colby; in Weeds 15 (1967) pp. 20 to 22):
(§5) • A, B=activity of components A and B in percent at a dosage of a and b g of ai/ha (=gramm of active substance per hectare), respectively. • E=expected value in % at a dosage of a+b g of ai/ha.

Zea mays (ZEAMX) = assay: Post-emergence action, greenhouse pots, visual scoring; settings: component B 60 g of ai/ha
Description: as §1, §2, §3, §4, §5

[1] = test system: Lolium multiflorum (LOLMU); assay: Post-emergence action against weeds, greenhouse pots, visual scoring
Description: as §1, §2, §3, §4, §5

[2] = test system: Cyperus esculentus (CYPES); assay: as above; settings: 21 DAT
Description: as §1, §2, §3, §4, §5

[3] = test system: Alopecurus myosuroides (ALOMY); assay: as above
Description: as §1, §2, §3, §4, §5

Setaria viridis (SETVI) = assay: as above; settings: 21 DAT
Description: as §1, §2, §3, §4, §5

[4] = test system: Triticum aestivum (TRZAS); assay: Post-emergence action, greenhouse pots, visual scoring; settings: 10 DAT, component B 180 g of ai/ha
Description: as §1, §2, §3, §4, §5

[5] = test system: Matricaria inodora (MATIN); assay: Post-emergence action against weeds, greenhouse pots, visual scoring; settings: 21 DAT
Description: as §1, §2, §3, §4, §5

[6] = test system: Fallopia (ex Polygonum) convolvulus (POLCO); assay: as above; settings: 21 DAT
Description: as §1, §2, §3, §4, §5

Avena fatua (AVEFA) = assay: as above; settings: 21 DAT, component B 60 g of ai/ha
Description: as §1, §2, §3, §4, §5

[7] = test system: Amaranthus retroflexus (AMARE); assay: as above; settings: 21 DAT, component B 60 g of ai/ha
Description: as §1, §2, §3, §4, §5

Viola tricolor (VIOTR) = assay: as above
Description: as §1, §2, §3, §4, §5

[8] = 10 DAT, component B 60 g of ai/ha
[9] = 10 DAT, component B 180 g of ai/ha
[10] = 21 DAT, component B 60 g of ai/ha
[11] = 21 DAT, component B 180 g of ai/ha

`COc1nc(OC)nc(C(=O)c2cccc(F)c2N(C)S(=O)(=O)C(F)F)n1` [A-1] was tested, and the “% activity found” value (Stellaria media (STEME); component A 4 g of ai/ha) was 70% and the “% activity found” value (Stellaria media (STEME); component A 12 g of ai/ha) was 70%.

For `COc1c(Cl)ccc(Cl)c1C(=O)O` [B1-1, 3,6-dichloro-2-methoxybenzoic acid], the “% activity found” value (Zea mays (ZEAMX); 10 DAT) was 0%, the “% activity found” value [1, 8] was 0% and the “% activity found” value [1, 9] was 10%. The “% activity found” value [1, 10] was 0%, the “% activity found” value ([2]; component B 60 g of ai/ha) was 0% and the “% activity found” value ([2]; component B 180 g of ai/ha) was 0%. For the same molecule, the “% activity found” value [3, 10] was 0%, the “% activity found” value [3, 11] was 0% and the “% activity found” value (Setaria viridis (SETVI); component B 60 g of ai/ha) was 0%. The “% activity found” value (Setaria viridis (SETVI); component B 180 g of ai/ha) was 20%.

`O=C(O)c1c(Cl)ccc2cc(Cl)cnc12` [B3-1, 3,7-dichloro-8-quinolinecarboxylic acid] was tested, and the “% activity found” value (Zea mays (ZEAMX); 10 DAT) was 0%, the “% activity found” value (Zea mays (ZEAMX); 21 DAT) was 0% and the “% activity found” value [4] was 0%. The “% activity found” value [1, 8] was 0%, the “% activity found” value [1, 9] was 0% and the “% activity found” value ([2]; component B 60 g of ai/ha) was 0%. The “% activity found” value ([2]; component B 180 g of ai/ha) was 0%, the “% activity found” value ([5]; component B 60 g of ai/ha) was 0% and the “% activity found” value ([5]; component B 180 g of ai/ha) was 0%. The “% activity found” value (Stellaria media (STEME); component B 60 g of ai/ha) was 10%, the “% activity found” value ([6]; component B 60 g of ai/ha) was 0% and the “% activity found” value ([6]; component B 180 g of ai/ha) was 0%. The “% activity found” value (Avena fatua (AVEFA)) was 0%, the “% activity found” value [7] was 40% and the “% activity found” value [3, 8] was 0%. For the same molecule, the “% activity found” value [3, 9] was 0%, the “% activity found” value [3, 10] was 0% and the “% activity found” value [3, 11] was 0%. The “% activity found” value (Viola tricolor (VIOTR); [9]) was 20% and the “% activity found” value (Viola tricolor (VIOTR); [10]) was 40%.
